From patent US20260125359A1, “HETEROARYL COMPOUNDS AS MULTI-TARGET PROTEIN KINASE INHIBITORS” (FUJIAN HAIXI PHARMACEUTICALS CO., LTD., priority 2023, published 2026)

Each molecule was assayed on M-NFS-60 cells (assay: M-NFS-60 cell in vitro assay (CCK, 48 h, M-CSF factor medium)). Settings: M-NFS-60 cells; read-out: M-NFS-60cellassay IC50.
Type: cell-based
Summary of the method: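 IC50 values were fitted from CCK absorbance (450 nm, 2 h development) after 48 h compound treatment. Cells: M-NFS-60, seeded 2000/well and rested 4 h, grown in medium carrying 25 ng/ml M-CSF factor plus 10% serum; compounds serially diluted in DMSO.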

First: Cn1cc(-c2cncc(NC3CC(F)c4c(NC(=O)c5ccc(C(F)(F)F)cc5)cccc43)c2)cn1 (centres unmarked) [Compound 71, N-(3-fluoro-1-((5-(1-methyl-1H-pyrazol-4-yl)pyridin-3-yl)amino)-2,3-dihydro-1H-inden-4-yl)-4-(trifluoromethyl)benzamide]
Second: Cn1cc(-c2cncc(N[C@H]3CCc4c(C(=O)Nc5ccc(C(F)(F)F)cc5)cccc43)c2)cn1 [Compound 14al]
The IC50 of the first is higher: 200 to 500 nM for the first, < 50 nM for the second. The second is the more potent here.

Compared with `Cn1ncc2ncc(O[C@H]3CCc4c(C(=O)Nc5cccc(C6CC6)c5F)cccc43)cc21` [Compound 76bc], `COc1cccc(NC(=O)c2cccc3c2CC[C@@H]3Oc2cnc3cnn(C)c3c2)c1F` [Compound 76ak] is higher in IC50: < 50 nM for the first, 50 to 200 nM for the second.

First: CN1CCc2ccc(NC(=O)c3cccc4c3CC[C@@H]4Oc3cncc(-c4cnn(C)c4)c3)cc2C1 [Compound 18, (S)—N-(2-methyl-1,2,3,4-tetrahydroisoquinolin-7-yl)-1-((5-(1-methyl-1H-pyrazol-4-yl)pyridin-3-yl)oxy)-2,3-dihydro-1H-indene-4-carboxamide]
Second: Cn1cc(-c2cncc(O[C@H]3CCc4c(C(=O)Nc5cccc(C(C)(C)N)c5)cccc43)c2)cn1 [Compound 19m]
The IC50 of the first is lower: 50 to 200 nM for the first, 200 to 500 nM for the second. The first is the more potent here.

`COc1cccc(C(=O)Nc2cccc3c2CC[C@H]3Oc2cc(-c3cnn(C)c3)cnc2N)c1` [Compound 3a] and `COc1cccc(C(=O)Nc2cccc3c2CCCC3Oc2cc(-c3cnn(C)c3)cnc2N)c1` (centres unmarked) [Compound 2a] cannot be ordered by IC50: > 500 nM for the first, > 500 nM for the second.

Compared with `Cn1cc(-c2cncc(N[C@H]3CCc4c(NC(=O)OC5CCCCC5)cccc43)n2)cn1` [Compound 65c], `Cc1csc(Nc2cccc3c2CC[C@@H]3Nc2cncc(-c3cnn(C)c3)n2)n1` [Compound 36a] is higher in IC50: < 50 nM for the first, > 500 nM for the second.

First: Cn1cc(-c2cncc(N[C@H]3CCc4c(C(=O)Nc5cncc(C(F)(F)F)c5)cccc43)c2)cn1 [Compound 14ak]
Second: Cn1cc(-c2cncc(N[C@H]3CCc4c(CNc5ccc(C(F)(F)F)cc5)cccc43)c2)cn1 [Compound 58, (S)-5-(1-methyl-1H-pyrazol-4-yl)-N-(4-(((4-(trifluoromethyl)phenyl)amino)methyl)-2,3-dihydro-1H-inden-1-yl) pyridin-3-amine]
The IC50 of the first is lower: < 50 nM for the first, > 500 nM for the second.

`Cc1cccc(NC(=O)c2cccc3c2CC[C@@H]3Oc2cnc3cn(C)nc3c2)c1F` [Compound 76aj] and `Cn1ncc2ncc(O[C@H]3CCc4c(C(=O)Nc5ccc6c(c5)OC(F)(F)O6)cccc43)cc21` [Compound 76ae] cannot be ordered by IC50: < 50 nM for the first, < 50 nM for the second.

First: O=C(Nc1cccc(C2CC2)c1)c1cccc2c1CC[C@@H]2Nc1cncc(Br)c1 [Compound 10, (S)-1-((5-bromopyridin-3-yl)amino)-N-(3-cyclopropylphenyl)-2,3-dihydro-1H-indene-4-carboxamide]
Second: Cn1cc2cc(N[C@H]3CCc4c(C(=O)Nc5cccc(C6CC6)c5)cccc43)ccc2n1 [Compound 74d]
The IC50 of the first is lower: 50 to 200 nM for the first, > 500 nM for the second.

`Cc1cncc(Nc2cccc3c2CC[C@@H]3Nc2cncc(-c3cnn(C)c3)n2)c1` [Compound 39b] and `Cc1cncc(CNc2cccc3c2CC[C@@H]3Nc2cncc(-c3cnn(C)c3)n2)c1` [Compound 60e] cannot be ordered by IC50: > 500 nM for the first, > 500 nM for the second.

First: Cn1cc2ncc(N[C@H]3CCc4c(CNc5cccc(C6CC6)c5)cccc43)cc2n1 [Compound 96a]
Second: Cn1cc2ncc(N[C@H]3CCc4c(Nc5cc(C6(C(F)(F)F)CCC6)on5)cccc43)cc2n1 [Compound 91n]
The IC50 of the first is higher: 50 to 200 nM for the first, < 50 nM for the second.

Compared with `Cc1cccc(C(=O)Nc2ccc(F)c3c2CCC3Nc2cncc(-c3cnn(C)c3)c2)c1` (centres unmarked) [Compound 44b], `Cc1cccc(C(=O)Nc2c(F)ccc3c2CC[C@@H]3Nc2cncc(-c3cnn(C)c3)c2)c1` [Compound 46b] is higher in IC50: < 50 nM for the first, 50 to 200 nM for the second. The first is the more potent here.

First: Cn1cc2ncc(N[C@H]3CCc4c(Nc5noc(C(C)(C)C(F)(F)F)n5)cccc43)cc2n1 [Compound 93f]
Second: Cn1ncc2ncc(N[C@H]3CCc4c(Nc5nc(C(C)(C)C)cs5)cccc43)cc21 [Compound 91b]
The IC50 of the first is lower: < 50 nM for the first, 50 to 200 nM for the second.

Compared with `Cn1cc(-c2cncc(N[C@H]3CCc4c(Nc5ccn(C(C)(C)C)n5)cccc43)n2)cn1` [Compound 38, (S)—N^4-(1-(tert-butyl)-1H-pyrazol-3-yl)-N^1-(6-(1-methyl-1H-pyrazol-4-yl)pyrazin-2-yl)-2,3-dihydro-1H-indene-1,4-diamine], `Cn1cc(-c2cncc(N[C@H]3CCc4c(Nc5nc(C(C)(C)C)cs5)cccc43)n2)cn1` [Compound 36c] is lower in IC50: 50 to 200 nM for the first, < 50 nM for the second.

First: CN(c1cnc2cn(C)nc2c1)[C@H]1CCc2c(C(=O)Nc3ccc4c(c3)OC(F)(F)O4)cccc21 [Compound 80u]
Second: Cn1cc(-c2cncc(N[C@H]3CCc4c(C(=O)Nc5cccc(CN6CCCCC6)c5)cccc43)c2)cn1 [Compound 14at]
The IC50 of the first is lower: < 50 nM for the first, 50 to 200 nM for the second. The first is the more potent here.

In the case of `CC(C)(C)c1ccnc(Nc2cccc3c2CC[C@@H]3Nc2cncc(Cl)c2)n1` [Compound 42h], the IC50 is reported as > 500 nM.
